{"source": "patent US20150376654A1", "about": "(priority 2011, published 2015)", "key": {"[1]": {"tested_on": "C. autoethanogenum DSM23693 wild-type (WT), parental", "conditions": "PETC media, 30 psi steel mill gas", "method": "(§1) To investigate whether overexpression of GroESL enhances ethanol tolerance of C. autoethanogenum DSM23693, both wild-type (WT), i.e. parental microorganism and transformed strain carrying plasmid pMTL85246-GroESL were challenged with different concentrations of ethanol (FIG. 8).\n(§2) Growth experiments in triplicates were carried out in 50 ml PETC media (Table 1) in serum bottles sealed with rubber stoppers and 30 psi steel mill gas (collected from New Zealand Steel site in Glenbrook, NZ; composition: 44% CO, 32% N2, 22% CO2, 2% H2) in the headspace as sole energy and carbon source. […] All cultures were inoculated to the same optical density using the same pre-culture for either wild-type (parental) or transformed strain. Changes in biomass were measured spectrophotometrically at 600 nm until growth ceased. The maximum biomass of each culture was compared with the unchallenged culture."}, "[2]": {"tested_on": "C. autoethanogenum DSM23693 transformed strain carrying plasmid pMTL85246-GroESL", "conditions": "PETC media, 30 psi steel mill gas, biomass at 600 nm", "method": "as §1, §2"}, "[3]": {"tested_on": "Clostridium ljungdahlii DSM13583 pMTL83156-grpE-dnaK-dnaJ transformants"}, "[4]": {"tested_on": "Clostridium ljungdahlii DSM13583 pMTL83156-groESL transformants"}, "[5]": {"tested_on": "C. autoethanogenum DSM10061 chaperone over-expressing (pMTL83156-groESL) transformants", "conditions": "for OD600 reached: 37 h post inoculation, MMYF medium", "method": "(§3) The experiment was first conducted as described above using PETC medium and autotrophic conditions with CO as substrate (FIG. 16a) and afterwards repeated using a different growth medium and heterotrophic conditions with fructose as substrate to rule out the effect of the growth media and substrate (FIG. 16b). A plasmid control was included. […] For ethanol challenge assay, 500 μL of two day old cultures were inoculated into each of five 60 mL serum bottles containing 20 mL of selective MMYF medium and incubated at 37° C. without agitation. […] Static incubation at 37° C. was allowed for 80-100 hours and the growth was monitored by measuring the optical density at a wavelength of 600 nm using Jenway 7300 spectrophotometer. Microscope examinations were routinely carried out.\n(§4) The experiment was first conducted as described above using PETC medium and autotrophic conditions with CO as substrate (FIG. 16a) and afterwards repeated using a different growth medium and heterotrophic conditions with fructose as substrate to rule out the effect of the growth media and substrate (FIG. 16b). A plasmid control was included. Both plasmid control (pMTL83157) transformants and chaperone over-expressing (pMTL83156-groESL) transformants were cultured anaerobically in MMYF medium supplemented with freshly prepared 7.5 μg/mL thiamphenicol (final concentration). For ethanol challenge assay, 500 μL of two day old cultures were inoculated into each of five 60 mL serum bottles containing 20 mL of selective MMYF medium and incubated at 37° C. without agitation. […] Static incubation at 37° C. was allowed for 80-100 hours and the growth was monitored by measuring the optical density at a wavelength of 600 nm using Jenway 7300 spectrophotometer. Microscope examinations were routinely carried out."}, "[6]": {"tested_on": "Clostridium ljungdahlii DSM13583 pMTL83157 plasmid control"}, "[7]": {"tested_on": "majority of bacteria", "conditions": "cited from earlier work"}, "[8]": {"tested_on": "Clostridium autoethanogenum DSM23693", "method": "(§5) The ethanol tolerance of three acetogenic strains Clostridium ljungdahlii DSM13583, Clostridium autoethanogenum DSM10061, and C. autoethanogenum DSM23693 was tested in serum bottles.\n(§6) Ethanol was added in various concentrations to an active growing culture at 37° C. in PETC medium (Table 1) with 30 psi steel mill gas as substrate. The media was prepared by using standard anaerobic techniques (Hungate R E. A roll tube method for cultivation of strict anaerobes, In Norris J R and Ribbons D W (eds.), Methods in Microbiology, vol. 3B. Academic Press, N Y, 1969: 117-132; Breznak J A and Costilow R N, Physicochemical factors in growth, In Gerhardt P (ed.), Methods for general and molecular bacteriology. American Society for Microbiology, Washington, 1994: 137-154). […] Slightly acidified water was used (0.005 M H2SO4) as mobile phase with a flow rate of 0.7 ml/min. To remove proteins and other cell residues, 400 μl samples were mixed with 100 μl of a 2% (w/v) 5-Sulfosalicylic acid and centrifuged at 14,000×g for 3 min to separate precipitated residues. 10 μl of the supernatant were then injected into the HPLC for analyses."}, "[9]": {"tested_on": "Clostridium ljungdahlii DSM13583", "conditions": "50 g/L ethanol, serum bottle studies", "method": "as §5, §6"}, "[10]": {"tested_on": "Clostridium autoethanogenum DSM10061", "method": "as §5, §6"}, "[11]": {"tested_on": "Zymomonas mobilis or Lactococcus strains", "conditions": "cited from earlier work"}, "[12]": {"tested_on": "C. autoethanogenum DSM10061 pMTL83156-grpE-dnaK-dnaJ transformant", "conditions": "5 g/L, 10 g/L and 25 g/L ethanol, up to 102 h post inoculation", "method": "(§7) Anaerobic ethanol was administered at 12 hour post inoculation.\nas §3\nThe experiment was first conducted as described above using PETC medium and autotrophic conditions with CO as substrate (FIG. 16a) and afterwards repeated using a different growth medium and heterotrophic conditions with fructose as substrate to rule out the effect of the growth media and substrate (FIG. 16b). A plasmid control was included. […] Static incubation at 37° C. was allowed for 80-100 hours and the growth was monitored by measuring the optical density at a wavelength of 600 nm using Jenway 7300 spectrophotometer. […]"}, "[13]": {"tested_on": "C. autoethanogenum DSM10061 plasmid control (pMTL83157) transformants", "experiment": "microbe, parasite or virus in culture", "method": "as §7, §3, §4"}, "[14]": {"tested_on": "Clostridium ljungdahlii pMTL83155-groESL (phosphotransacetylase promoter)", "conditions": "construct with the phosphotransacetylase/acetate kinase operon promoter", "method": "In addition, the effect of different promoter sequences was evaluated. The two strong C. autoethanogenum promoters of pyruvate:ferredoxin oxidoreductase and phosphotransacetylase/acetate kinase operon were used."}, "[15]": {"tested_on": "Two species of the genus Clostridium", "conditions": "cited from earlier work"}, "[16]": {"tested_on": "Clostridium acetobutylicum overproducing GroESL", "conditions": "overproduction of GroESL; cited from earlier work"}, "[17]": {"conditions": "5 g/L ethanol added after 12 hours, 66 hours"}, "[18]": {"conditions": "50 g/L ethanol, serum bottle studies"}, "[19]": {"conditions": "Clostridium autoethanogenum, DSM10061, read-out: OD600 inhibition (% reduction in OD600 relative to unchallenged culture)"}}, "note": "Like-named read-outs stand apart in the source and are kept apart here.", "data": [{"molecule": "CCO", "note": "[ethanol]", "values": [{"measurement": "doubling of culture when challenged with ethanol", "setting": "[1]; 45 g/l ethanol, biomass at 600 nm", "value": 0.39, "unit": "doubling"}, {"measurement": "biomass change when ethanol was added", "setting": "[1]; 60 g/l ethanol", "value": "biomass even dropped"}, {"measurement": "growth after addition of ethanol", "setting": "[1]; 60 g/l ethanol", "value": "ceased"}, {"measurement": "doublings of culture when challenged with ethanol", "setting": "[2]; 45 g/l ethanol", "value": 2.14, "unit": "times"}, {"measurement": "doublings of culture when challenged with ethanol", "setting": "[2]; 60 g/l ethanol", "value": 1.27, "unit": "times"}, {"measurement": "OD600 relative to plasmid controls", "setting": "[3]", "value": "higher OD600 than plasmid controls"}, {"measurement": "time to reach OD600 of ~0.6 relative to plasmid control", "setting": "[3]", "value": "significantly earlier"}, {"measurement": "OD600", "setting": "[3]; [17]", "value": 1.12}, {"measurement": "OD600", "setting": "[3]; 10 g/L ethanol added after 12 hours, 114 h post inoculation", "value": 1.15}, {"measurement": "OD600", "setting": "[3]; 25 g/L ethanol added after 12 hours, 36 hrs. post inoculation", "value": 0.48}, {"measurement": "increase in OD600", "setting": "[3]; 50 g/L ethanol challenge at 12 hour post inoculation", "value": 0.096}, {"measurement": "change in OD600", "setting": "[4]", "value": "reduction in OD600"}, {"measurement": "ethanol tolerance over the wild-type", "setting": "[4]", "value": "significantly enhanced"}, {"measurement": "time to reach OD600 of ~0.6 relative to plasmid control", "setting": "[4]", "value": "significantly earlier"}, {"measurement": "OD600", "setting": "[4]; [17]", "value": 0.97}, {"measurement": "OD600", "setting": "[4]; 25 g/L ethanol added after 12 hours, 36 h post inoculation", "value": 0.42}, {"measurement": "OD600 reached", "setting": "[5]; 5 g/L ethanol added 12 hour post inoculation", "value": 0.38}, {"measurement": "growth relative to plasmid control", "setting": "[5]; 5 g/L, 10 g/L and 25 g/L ethanol at 12 hour post inoculation", "value": "significantly earlier growth"}, {"measurement": "growth in presence of ethanol", "setting": "[5]; 25 g/L ethanol", "value": "able to grow"}, {"measurement": "OD600 reached", "setting": "[5]; 25 g/L ethanol added 12 hour post inoculation", "value": 0.31}, {"measurement": "growth in presence of ethanol", "setting": "[5]; 50 g/L ethanol", "value": "able to grow"}, {"measurement": "biomass relative to plasmid control", "setting": "[5]; all levels of ethanol challenge", "value": "higher biomass"}, {"measurement": "change in OD600", "setting": "[6]", "value": "reduction in OD600"}, {"measurement": "OD600", "setting": "[6]; [17]", "value": "~0.66"}, {"measurement": "OD600", "setting": "[6]; 10 g/L ethanol added after 12 hours, 101 h post inoculation", "value": 0.67}, {"measurement": "OD600", "setting": "[6]; 25 g/L ethanol added after 12 hours, 30 h post inoculation", "value": 0.20}, {"measurement": "maximum tolerated ethanol", "setting": "[7]", "value": "4-7%"}, {"measurement": "natural tolerance to ethanol", "setting": "[8]; 25 g/L ethanol", "value": "tolerant"}, {"measurement": "growth in presence of ethanol", "setting": "[8]; [18]", "value": "none of the strains was able to grow"}, {"measurement": "ethanol concentration at which growth was inhibited", "setting": "[8]; serum bottles, PETC medium, 37° C., 30 psi steel mill gas", "value": "10-20 g/l"}, {"measurement": "growth in presence of ethanol", "setting": "[9]", "value": "none of the strains was able to grow"}, {"measurement": "growth in presence of ethanol", "setting": "[10]; 25 g/L ethanol", "value": "unable to grow"}, {"measurement": "growth in presence of ethanol", "setting": "[10]; [18]", "value": "none of the strains was able to grow"}, {"measurement": "tolerated ethanol", "setting": "[11]", "value": "more than 10%"}, {"measurement": "growth inhibition by ethanol challenge relative to plasmid control", "setting": "[12]", "value": "significantly less inhibited"}, {"measurement": "time to exceed OD600 0.25", "setting": "[13]; 5 g/L ethanol added 12 hour post inoculation, MMYF medium", "value": "more than 102 h"}, {"measurement": "OD600 reached", "setting": "[13]; 25 g/L ethanol added 12 hour post inoculation, 78 h post inoculation, MMYF medium", "value": 0.29}, {"measurement": "inhibition at 10000 µg/mL", "setting": "[13]; [19]", "value": 74, "unit": "%"}, {"measurement": "inhibition at 25000 µg/mL", "setting": "[13]; [19]", "value": 79, "unit": "%"}, {"measurement": "ethanol tolerance over the wild-type", "setting": "[14]", "value": "didn't enhance ethanol tolerance"}]}, {"molecule": "butanol", "values": [{"measurement": "tolerated butanol level (hardly exceeded)", "setting": "[7]", "value": "1.5-2.5%"}, {"measurement": "tolerated butanol level", "setting": "[15]", "value": "around 1.5%"}, {"measurement": "reduction of inhibition by butanol challenge compared to the wild-type", "setting": "[16]", "value": "up to 85%"}]}]}
